Data reported in patent US7169591B1, “Preparation of enantio-specific epoxides” (priority 1999, dated 2007).

Columns and labels:
[1] = tested on: Pseudomonas sp. strain ENVPC5; assay: Alkene degradation assay, whole cells of Pseudomonas sp. strain ENVPC5 (T4MO); format: cell-based; details: for added substrate degraded: in 20 hours
Source text: (§1) Pseudomonas mendocina KR1 (Yen et al., J. Bacteriol., 173:5315–5327 (1991)), the T4MO mutant of KR1 Pseudomonas mendocina ENVpmx1 (McClay et al., The 97th Annual Meeting of ASM, Abstract K36, page 348 (1997)), Pseudomonas pickettii PKO1 (Byrne et al., Gene, 154:65–70 (1995)), Burkholderia cepacia G4 (Shields et al., Appl. Environ. Microbiol., 55:1624–1629 (1989)), Burkholderia sp. strain ENVBF1 (McClay et al., Appl. Environ. Microbiol., 62:2716–2722 (1996)), and Pseudomonas sp. strain ENVPC5 (McClay et al., 1996, supra) were cultured overnight at 30° C. in shake flasks containing basal salts medium (BSM; 10) supplemented with 0.4% sodium glutamate. Toluene was included in the vapor phase when induction of the toluene oxygenases was desired. Prior to substrate degradation assays the cultures were harvested by centrifugation and resuspended in BSM to an optical density at 550 nm (OD550) of 2, unless otherwise indicated. A standard curve of optical density vs. protein concentration for each strain was used to calculate the amount of protein per ml of the resuspended cultures.
(§2) To determine the range of alkenes that could be degraded by the toluene monooxygenase and the degradation kinetics of the toluene monooxygenases, 5-ml aliquots of the resuspended cultures were dispensed to 25-ml serum vials and crimp sealed with Teflon™ faced septa. Gaseous alkene substrates were added as pure compounds by using a gas-tight syringe, and other alkene substrates were added from stock solutions (20% in dimethylformamide). The amount of individual alkene substrates added were as follows: 1-butene, 2-butene, and 1,3-butadiene, 2.2 μM; epoxy butane, 1,3-butadiene monoxide, and epichlorohydrine, 8 μM; 1- and 2-pentene, 9 μM; hexene, 4 μM; octadiene, 4.5 μM; 2-chloropropene, 11 μM; and, 2,3-dichloropropene, 12 μM unless otherwise indicated. The serum vials were then placed horizontally on a rotary shaker operating at 100 rpm. During incubation the temperature was maintained between 20–22° C. for the Pseudomonads and at 37° C. for E. coli. The serum vials were periodically removed from the shaker and a 10–25 μl portion of the headspace gas was withdrawn through the septa and injected onto a gas chromatograph (GC) equipped with a 30 m Vocol column (Supelco Inc. Bellefonte, Pa.) maintained at 160° C., and a flame ionization detector. This allowed the monitoring of both the alkene compounds as well as the epoxide products. The same protocol was used to detect the formation of 1,2-butanediol and butadiene diepoxide, except that 1 μl of the culture media was injected onto the column rather than the headspace gas.

[2] = tested on: Pseudomonas sp. strain ENVPC5; assay: Enantiomeric ratio of monoepoxides (chiral GC), strain ENVPC5; format: cell-based; details: PC5
Experimental: (§3) To determine the ratio of R and S isomers of the epoxides formed from the oxidation of the alkenes, samples were analyzed for the presence of the epoxides and alkenes by gas chromatography as described above. When the epoxide concentration neared its maximum, or when the 80–90% of the substrate was degraded, the enantiomeric ratio of epoxides produced was determined by injecting a sample of the headspace gas onto a GC equipped with a chiral separation column (RT-BDEXSE; Restek, Inc., Bellefonte, Pa.) and a flame ionization detector. The column was maintained at 50° C.

[3] = tested on: Burkholderia sp. strain ENVBF1; assay: Alkene degradation assay, whole cells of Burkholderia sp. strain ENVBF1 (T4MO); format: cell-based
Source text: as §1, §2

Burkholderia cepacia G4 = assay: Alkene degradation assay, whole cells of Burkholderia cepacia G4 (T2MO); format: cell-based; details: for alkene degraded that was detected as the epoxide product: toluene induced G4, 4.4 μmoles 1,3-butadiene or 2.2 μmoles 2-butene
Source text: as §1, §2

[4] = tested on: Burkholderia cepacia G4 (T2MO); assay: Enantiomeric ratio of monoepoxides (chiral GC), strain G4; format: cell-based
Experimental: as §3

[5] = tested on: Pseudomonas mendocina KR1 (T4MO); assay: Enantiomeric ratio of monoepoxides (chiral GC), strain KR1; format: cell-based
Experimental: as §3

[6] = tested on: Burkholderia sp. strain ENVBF1; assay: Enantiomeric ratio of monoepoxides (chiral GC), strain ENVBF1; format: cell-based
Experimental: as §3

[7] = tested on: Pseudomonas mendocina KR1; assay: Alkene degradation assay, whole cells of Pseudomonas mendocina KR1 (T4MO); format: cell-based
Source text: as §1, §2

[8] = tested on: Pseudomonas pickettii PKO1 (T3MO); assay: Enantiomeric ratio of monoepoxides (chiral GC), strain PKO1; format: cell-based; details: KO1 (PKO1)
Experimental: as §3

alkane hydroxylase = molecular target: T1, alkane hydroxylase (Ectopseudomonas oleovorans, UniProt P12691); details: cited from earlier work
T1 sequence (P12691 1-401): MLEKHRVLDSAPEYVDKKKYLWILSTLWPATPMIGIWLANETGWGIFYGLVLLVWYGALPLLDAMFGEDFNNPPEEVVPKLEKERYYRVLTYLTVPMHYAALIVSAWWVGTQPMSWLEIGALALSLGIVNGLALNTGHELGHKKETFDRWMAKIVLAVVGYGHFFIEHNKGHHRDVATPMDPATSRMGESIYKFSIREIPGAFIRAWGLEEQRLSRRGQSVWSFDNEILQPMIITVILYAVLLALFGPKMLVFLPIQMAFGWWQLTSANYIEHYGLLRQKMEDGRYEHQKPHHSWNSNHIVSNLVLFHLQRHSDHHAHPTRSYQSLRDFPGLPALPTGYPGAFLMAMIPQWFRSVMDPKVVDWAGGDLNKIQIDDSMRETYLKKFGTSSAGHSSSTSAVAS

wild type organisms = assay: Alkene oxidation and epoxide detection (GC, PNBP), wild type organisms; format: cell-based; details: for epoxide detection during oxidation: wild type organisms
Experimental: as §2
The only epoxides relevant to this study that were commercially available were 1,3-butadiene mono-, and diepoxide. These were used in GC analyses to determine retention times and to quantitate the conversion of 1,3-butadiene to the corresponding epoxides. To verify that the observed peaks were epoxides, a modification of the method of van Hylckama et al. (van Hylckama et al., Appl. Environ. Microbiol., 62:3304–3312 (1996)) was used, whereby epoxides were conjugated with PNBP to form intensely colored adducts of the epoxides. Serum vials were prepared as before, except that prior to sealing the vials, Durham tubes were placed inside the vials, with the opening of the Durham tube extending out of the liquid. The substrate was then added and the vials were incubated with moderate shaking at a 45° angle to prevent the culture liquid from entering the Durham tube. The transformation of the alkenes was monitored by GC analysis. […] The vials were then allowed to incubate for 8 hours before they were opened and the epoxide containing PNBP withdrawn. The total volume of PNBP solution was combined with an equal volume of acetone-triethylamine (50:50) and mixed rapidly. Epoxide/PNBP adducts were detected by spectra analysis (400–700 nm).

[9] = tested on: E. coli (pRS202) expressing T4MO; assay: Alkene degradation assay, E. coli (pRS202) expressing T4MO; format: cell-based, Escherichia coli DH10B
Experimental: Escherichia coli DH10B containing the plasmid pRS202 (Pikus et al., Biochemistry, 35:9106–9119 (1996); Pikus et al., Biochemistry, 36:9283–9289 (1997)) was prepared in a similar manner except it was grown at 37° C. in LB media, and was resuspended to an OD550 of 4 in LB media with 0.3–1 mM IPTG to induce expression of T4MO.
as §2

[10] = tested on: Pseudomonas mendocina ENVpmx1; assay: Alkene degradation assay, T4MO deficient strain Pseudomonas mendocina ENVpmx1; format: cell-based
Source text: as §1, §2

[11] = following 30 minutes incubation
[12] = ENVBF1, following 30 minutes incubation
[13] = rate determined after 60 minutes of incubation

In the case of `C=CC=C` [1,3-butadiene], the “Specific activity of toluene monooxygenase, substrate degraded” value (shortened to “Specific activity”) [1, 11] is reported as 0.09 μM substrate degraded/minute/mg protein, the added substrate degraded [1] is reported as 50% and the “monoepoxide formed, R enantiomer” value [2] is reported as 32.7%. The “monoepoxide formed, S enantiomer” value [2] was 67.3%, the “Specific activity” value [3, 12] was 0.13 μM substrate degraded/minute/mg protein and the “time until oxidized to a concentration below the limits of detection” value (Burkholderia cepacia G4; G4) was ≤ 6 h. The “alkene degraded that was detected as the epoxide product” value (Burkholderia cepacia G4) was > 95%, the “monoepoxide formed, R enantiomer” value [4] was 8.1% and the “monoepoxide formed, S enantiomer” value [4] was 91.9%. The “monoepoxide formed, R enantiomer” value [5] was 22.4%, the “monoepoxide formed, S enantiomer” value [5] was 77.6% and the “monoepoxide formed, R enantiomer” value [6] was 22%. The “monoepoxide formed, S enantiomer” value [6] was 78%, the added substrate degraded ([7]; in 20 hours) was 50% and the substrate degraded ([7]; in 20 hours) was 1.1 µmol. The “monoepoxide formed, R enantiomer” value [8] was 19.6% and the “monoepoxide formed, S enantiomer” value [8] was 80.4%.

In the case of `C=CCCCCC=C` [1,7-octadiene], the “enantiomeric purity of the (R) epoxide formed” value (alkane hydroxylase) is given as 98%.

For `C=CCCC` [1-pentene], the “Specific activity” value [1, 11] was 0.15 μM substrate degraded/minute/mg protein, the “monoepoxide formed, R enantiomer” value [2] was 72.5% and the “monoepoxide formed, S enantiomer” value [2] was 27.5%. The “Specific activity” value [3, 12] was 0.05 μM substrate degraded/minute/mg protein, the “Specific activity” value (Burkholderia cepacia G4; G4, following 30 minutes incubation) was 0.08 μM substrate degraded/minute/mg protein and the “degradation” value (wild type organisms; all the wild type strains) was “efficiently degraded”. For the same molecule, the “degradation by the clone of T4MO” value [9] was “degraded”, the “monoepoxide formed, R enantiomer” value [4] was 100% and the “monoepoxide formed, S enantiomer” value [4] was 0%. For the same molecule, the “monoepoxide formed, R enantiomer” value [5] was 54.2%, the “monoepoxide formed, S enantiomer” value [5] was 45.8% and the “monoepoxide formed, R enantiomer” value [6] was 66.3%. The “monoepoxide formed, S enantiomer” value [6] was 33.7%, the “Specific activity” value [7, 11] was 0.21 μM substrate degraded/minute/mg protein and the “monoepoxide formed, R enantiomer” value [8] was 64.6%. The “monoepoxide formed, S enantiomer” value [8] was 35.4%.

With `C=C(Cl)CCl` [2,3-chloropropene, 2,3-dichloropropene] the “amount oxidized, less than the amount of 2-chloropropene degraded by the same strain” value (“amount oxidized, less than the amount” for short) [1] was 66.0%, the “Specific activity” value [1, 13] was 0.12 μM substrate degraded/minute/mg protein and the “amount oxidized, less than the amount” value ([3]; ENVBF1) was 75.6%. For the same molecule, the “Specific activity” value ([3]; ENVBF1, rate determined after 60 minutes of incubation) was 0.08 μM substrate degraded/minute/mg protein, the “amount degraded compared with the T4MO-expressing organisms” value (Burkholderia cepacia G4; G4) was “twice as much” and the “Specific activity” value (Burkholderia cepacia G4; G4, rate determined after 60 minutes of incubation) was 0.23 μM substrate degraded/minute/mg protein. The “epoxide detection during oxidation” value (wild type organisms) was “no epoxides were detected”, the “amount oxidized, less than the amount” value [7] was 95.2% and the “Specific activity” value [7, 13] was 0.01 μM substrate degraded/minute/mg protein.

In the case of `CC=CC` [2-butene], the “Specific activity” value [1, 11] is reported as 0.17 μM substrate degraded/minute/mg protein, the added substrate degraded [1] is reported as “Greater than 95%” and the “Specific activity” value [3, 12] is reported as 0.12 μM substrate degraded/minute/mg protein. The “alkene degraded that was detected as the epoxide product” value (Burkholderia cepacia G4) was 43%, the “time to degrade all the substrate” value [7] was 3.5 h and the added substrate degraded ([7]; in 20 hours) was “Greater than 95%”.

For `C=C(C)Cl` [2-chloropropene], the substrate degraded ([1]; first 3 hours of incubation) was 4 µmol, the “Specific activity” value [1, 11] was 0.18 μM substrate degraded/minute/mg protein and the additional substrate degraded ([1]; following 17 hours) was 1.0 µmol. The substrate degraded ([3]; ENVBF1, first 3 hours of incubation) was 2.3 µmol, the “Specific activity” value [3, 12] was 0.16 μM substrate degraded/minute/mg protein and the substrate degraded ([3]; ENVBF1, following 17 hours) was 6.3 µmol. For the same molecule, the “epoxide detection during oxidation” value (wild type organisms) was “no epoxides were detected”, the substrate degraded ([7]; first 3 hours of incubation) was 2.1 µmol and the “Specific activity” value [7, 11] was 0.07 μM substrate degraded/minute/mg protein. For the same molecule, the additional substrate degraded ([7]; following 17 hours) was 0.84 µmol.

For `C=CCCCCC1CO1` (stereo not drawn) [7,8-epoxy-1-octene], the “enantiomeric purity of the (R) epoxide formed” value (alkane hydroxylase) is listed as 83%.

For `C=CC1CO1` (stereo not drawn) [BME, 1,3-butadiene monoepoxide], the epoxide oxidized ([3]; induced ENVBF1, 24 hours) was 13.4 µmol, the epoxide degraded ([3]; uninduced ENVBF1, 24 hours) was “less than 1.3 μmoles” and the epoxide degraded (Burkholderia cepacia G4; induced G4 in the presence of butadiene, approximately 5 hr) was 0.7 µmol. For the same molecule, the epoxide degraded (Burkholderia cepacia G4; induced G4 in the presence of toluene, approximately 5 hr) was 0.5 µmol, the epoxide degraded (Burkholderia cepacia G4; toluene-induced G4, pure BME, first hour) was 8 µmol and the epoxide oxidized (Burkholderia cepacia G4; uninduced G4, first hour) was “less than 1 μmole”.

In the case of hexene, the “epoxide detection during oxidation” value (wild type organisms) is reported as “no epoxides were detected”, the “degradation by the clone of T4MO” value [9] is reported as “degraded” and the “degradation compared with the wild type strains” value [10] is reported as “at a greater rate than the wild type strains”. The “epoxide detection during oxidation” value [10] was “no epoxides were detected”.

In the case of octadiene, the “epoxide detection during oxidation” value (wild type organisms) is reported as “no epoxides were detected”, the “degradation by the clone of T4MO” value [9] is reported as “did not oxidize” and the “degradation compared with the wild type strains” value [10] is reported as “at a greater rate than the wild type strains”. For the same molecule, the “epoxide detection during oxidation” value [10] was “no epoxides were detected”.

For pentene, the “epoxide detection during oxidation” value [10] was “no epoxides were detected”.
